In patent publication US10617667B2, “Method for treating brain tumors” (ONO PHARMACEUTICAL CO., LTD., priority 2017, dated 2020):

Tests used:
EP4 receptor [1] = target: T1, EP4 receptor (Homo sapiens, UniProt P35408); conditions: as taught by Patent Document 1 (WO2016/111347); cited from earlier work
EP4 receptor [2] = target: T1, EP4 receptor; conditions: as taught by Patent Document 1 (WO2016/111347); cited from earlier work; remark: listed apart in the source
[3] = test system: mouse glioma cell line GL261 orthotopic-graft; experiment: Survival in mouse glioma cell line GL261 orthotopic-graft model; type: in vivo, immunocompetent syngeneic C57BL/6 mice; conditions: Compound A 3 mg/kg oral twice a day
Experimental: Effects of Combination of Compound A and an Anti-Mouse PD-1 Antibody in Mouse Glioma Cell Line GL261 Orthotopic-Graft Models Using Immunocompetent Syngeneic C57BL/6 Mice
The effect of a combination of Compound A and an anti-mouse PD-1 antibody (4H2, see WO2006/121168) was evaluated in mouse glioma cell line GL261 orthotopic-graft models using immunocompetent syngeneic C57BL/6 mice. GL261 was cultured in a CO2 incubator using an RPMI medium (Mediatech, Inc.) containing 10 vol % of FBS, 100 units/mL of penicillin, and 100 μg/mL of streptomycin. On the day of transplant, GL261 was harvested after removing the culture supernatant, and washing the cells with PBS. The harvested GL261 cells were suspended in PBS to obtain transplant cells. The transplant cells (5×10^4) were then transplanted to the brain of female C57BL/6J mice (The Jackson Laboratory) under anesthesia.
After 5 days from transplant, the mice were divided into 4 groups: a vehicle group, a Compound A single group, an anti-mouse PD-1 antibody single group, and a combination group (Compound A and the anti-mouse PD-1 antibody). Each group included 10 mice. […] The general condition of the mice was observed once a day from the day following the day of transplant of GL261, and scored according to the following table. Thus, the survival rate of the mice was evaluated.

T1 sequence (P35408 whole entry): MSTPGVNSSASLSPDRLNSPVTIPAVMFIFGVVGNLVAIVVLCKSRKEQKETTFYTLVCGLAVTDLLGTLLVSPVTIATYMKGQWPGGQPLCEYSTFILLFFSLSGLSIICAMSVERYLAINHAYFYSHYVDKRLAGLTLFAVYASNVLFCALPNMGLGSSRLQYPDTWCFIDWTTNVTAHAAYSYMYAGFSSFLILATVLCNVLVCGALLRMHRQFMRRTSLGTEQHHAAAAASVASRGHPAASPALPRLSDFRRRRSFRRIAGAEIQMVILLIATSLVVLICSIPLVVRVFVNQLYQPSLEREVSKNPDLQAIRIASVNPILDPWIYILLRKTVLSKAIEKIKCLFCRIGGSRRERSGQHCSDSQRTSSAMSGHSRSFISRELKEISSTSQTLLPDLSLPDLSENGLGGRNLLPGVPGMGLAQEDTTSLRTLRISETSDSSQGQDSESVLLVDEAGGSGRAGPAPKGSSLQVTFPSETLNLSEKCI

CC(C)NC(=O)c1ccc2c(c1)[C@]1(CCO2)C[C@H]1C(=O)Nc1cc(C#N)ccc1CCCC(=O)O [Compound A, 4-[4-cyano-2-({[(2′R,4S)-6-(isopropylcarbamoyl)-2,3-dihydrospiro[chromene-4,1′-cyclopropan]-2′-yl]carbonyl}amino)phenyl]butanoic acid]
binding to EP4 receptor (EP4 receptor [1]): strongly binds | activity at EP4 receptor (EP4 receptor [2]): antagonistic activity | survival time compared with vehicle administration group ([3]; GL261 orthotopic graft): longer than that of the vehicle administration group | day after which all the mice had died ([3]; GL261 transplanted to brain of female C57BL/6J mice, days 5-70 from transplant, 10 mice per group): 42 days
